Legend:
[1] = system: motor neurons generated from human induced pluripotent stem cells; assay: Neurite growth of hiPSC-derived motor neurons; assay type: cell-based; conditions: 20 μM peptide, assessed 24 h later
Description: Human induced pluripotent stem cells (hiPSCs) were maintained in dishes coated with Matrigel (Corning) in Flex8 media (ThermoFisher). hiPSCs were differentiated into human motor neurons using a directed differentiation protocol optimized by Kevin Eggan. 7000 neurons/well were plated on laminin—or CSPG coated 96 well plates. 100 μl at 10 μg/ml Laminin (ThermoFisher) and 25 ng CSPGs (Millipore) were used per well.
For peptide treatments, 10 μM Tat-fused peptides were added to dissociated DRG cultures at 2 or 12 h after plating. Neurite outgrowth was assessed 24 h after addition of peptides. For the cortical cultures, 10 μM peptide was applied to the axonal compartment at 3 d in vitro (DIV) and axonal growth was assessed at 6 DIV. For iMotor neurons, 20 μM peptides were immediately added and neurite growth was assessed 24 h later.
For neurite outgrowth, images from 60 h DRG cultures were analyzed for neurite outgrowth using WIS-Neuromath. Axon morphology was visualized using GFP and/or NF immunofluorescence as described. Differentiated hiPSC neuron image acquisition and neurite length quantification was performed using Arrayscan XTI (Thermo Fisher).

[2] = system: NMJs of TDPΔNLS MN-muscle co-cultures; assay: TMRE mitochondrial activity in in vitro NMJs; assay type: cell-based, mouse; conditions: 20 μM peptide in NMJ compartment
Description: Muscles in co-culture were kept in BA medium for 7 days. To aid NMJ formation, media in all compartments was then replaced to poor neurobasal (PNB) medium, which contained only 1% P/S and 1% Glutamax. Doxycycline was applied to TDP-43ΔNLS cultures only at the proximal MN compartment, in a concentration of 0.1 μg/mL, immediately after plating and throughout the entire experimental timeline. For TDPΔNLS recovery experiments (FIGS. 7-8), Doxycline was […] at the proximal MN compartment after 5 DIV, and the cultures were grown until 11 DIV. For G3BP1 peptide treatment (FIG. 21 at i-j, FIG. 24 at f), 20 μM G3BP1 peptides were added exclusively to the distal compartment, starting after 7 DIV.
Mitochondrial membrane potential was assessed with Tetramethylrhodamine Ethyl, Ester (TMRE; Thermo Fisher) dye. Cultures were incubated with 20 nM TMRE for 30 min in CO2 incubator, then washed 3 times with culture medium. Images of TMRE labeled axons in the distal compartment of MFCs were acquired before and after cultures were treated with Anisomycin (40 μM) or NaAsO2 (250 μM), Cycloheximide (150 μM) in ×60 magnification. […] The intensity of TMRE fluorescence in axonal mitochondria was measured using FIJI, and the fraction of change post/pretreatment was calculated for each image field.

[3] = system: G3BP1-mCherry aggregates in DRG axons; assay: Live cell imaging of G3BP1-mCherry granules; assay type: cell-based, rat; conditions: 10 μM peptide, 15 min
Description: Live cell imaging for G3BP1-mCherry granules. DRG neurons were transfected with G3BP1-mCherry, and 36 h later distal axons were imaged using Leica SP8X confocal microscope with environmental chamber maintained at 37° C., 5% CO2 (with 63×/1.4 NA oil immersion objective). G3BP1-mCherry signals were imaged as single optical planes in the axon shaft every 2 s for 100 frames (at 540 nm excitation and 23% white light laser power; 565-597 nm emission). To study the effect of the G3BP1 190-208 or 168-189 peptide, 10 μM FITC-conjugated peptide was added to the media and 15 min later imaging was continued.
For quantitation of G3BP1-mCherry aggregates density and size, a 100 μm of the axon shaft was considered (≥200 μm from cell body). Thresholding was applied to acquired image sequences using ImageJ to generate binary masks.
ImageJ particle analyzer was used for analysis. G3BP1 aggregates with area≥1 μm^2 were considered as SG-like structures. For analyzing the G3BP1 aggregate velocity, ImageJ Trackmate plug-in was used.

[4] = system: wild-type or ALS/FTD-associated mutant (P362L, A381T, E384K) TIA1-GFP in HEK cells; assay: TIA1-GFP aggregates in arsenite-treated HEK cells; assay type: cell-based; conditions: sodium arsenite 0.5 mM 30 minutes, then 10 μM peptide
Source text: The inventors tested whether the G3BP1 190-208 peptide would prevent the aggregation of granules formed by TIA1 and TDP43 mutant proteins associated with ALS and FTD. […] Next, we treated HEK cells expressing wild-type and or ALS/FTD-associated mutants (P362L, A381T, or E384K)TIA1, with arsenite a potent inducer of SG aggregation, in addition to either G3BP1 190-208 peptide or control G3BP1 168-189 peptide.
FIG. 5: Cell permeable G3BP1 190-208 peptide decreases TIA1-GFP puncta formed due to expression of disease causing TIA1 mutants. (A) Representative images of HEK cells transfected with GFP-tagged wild-type or ALS/FTD-associated mutants (P362L, A381T, or E384K) TIA1. Arrows show TIA1-GFP puncta. (B) Quantification of the percentage of cells with TIA1-GFP puncta greater than 2 μm^2 area in transfected cells relative TIA1-WT-GFP expressing cells. Consistent with previous studies, ALS/FTD- associated TIA1 mutants show increased number of TIA1-GFP puncta as compared to WT-TIA1. (C) HEK cells expressing TIA1-GFP or ALS/FTD-associated mutants TIA1-P362L, TIA1-A381T, TIA1-E384K were treated with sodium arsenite (0.5 mM) for 30 minutes followed by treatment with either 10 μM 190-208 G3BP1 or 168-189 control peptide. The number of cells containing TIA1-GFP puncta were measured and results are reported relative to non-treated controls. Number of HEK cells with TIA1-GFP granules both for WT and ALS/FTD mutants decreased after treatment with 10 μM 190-208 G3BP1 as compared to the 168-189 control peptide treated cells. (N≥90 over 3 cultures; by two-way ANOVA with Tukey HSD post-hoc). Scale bar: 20 μm.

YGNKKNNNQNNN-VVEPEPEPEPEPEPEPVSE [G3BP1 190-208 peptide]
neurite length [1]: significantly increased neurite length | pre-synaptic TMRE signal (mitochondria activity) in NMJs [2]: recovered | density of axonal G3BP1-mCherry aggregates along 100 μm axon [3]: striking decrease | motility of remaining G3BP1-mCherry aggregates [3]: greater motility | size of G3BP1-mCherry aggregates (SG-like structures) [3]: significantly smaller | number of HEK cells with TIA1-GFP granules ([4]; WT and ALS/FTD mutants, relative to non-treated controls): decreased | size of TIA1 aggregates ([4]; WT and mutant TIA1): decrease the size of the TIA1 aggregates
